From patent US4172130A, “α-AMINOACYL CONTAINING NEW PEPTIDES WITH GASTRIN EFFECTS AND A PROCESS FOR THE PREPARATION THEREOF” (Richter Gedeon Vegyeszeti Gyar RT, priority 1976, dated 1979)
Peptide text beside a SMILES is read from it. * marks the point of attachment. X2 = CC(C)(C)OC(=O)NOCC(=O)*

Legend:
gastric acid secretion [1] = details: in vivo; cited from earlier work
gastric acid secretion [2] = assay: Gastric acid secretion increasing effect, methods of Ghosh and Schild and Lai, modified by Pissidis and Clark; assay type: in vivo; details: for Activity, % (gastric acid secretion increasing effect): in comparison with 0.2 μ/100 g i.v. dosage of pentagastrin = 100%
Protocol: The biological activities of the new compounds according to the invention were tested by the methods of Ghosh and Schild (Br. J. Pharmac. Chemoth. 13, 54 (1958) and Lai (Gut. 5, 327 (1964), modified by Pissidis and Clark (Gut. 8, 196 (1967)). The pharmacological tests have shown that the gastric acid secretion provoked by the new compounds is occasionally higher by 20 to 80% than that provoked by the same dosage of pentagastrin. It is particularly remarkable that the new compounds, in contrast with pentagastrin, are resorbed also from the small intenstine, and, when administered to the small intenstine in a dosage of 20 μg/100 g body weight, exert effects similar to that exerted by a 0.2 μg/100 g i.v. dosage of pentagastrin. […] It is also remarkable that some of the new compounds increase the gastric acid secretion after resorption from the rectum.

Compound: H--Trp--Met--Asp--Phe--NH2: carboxy-terminal tetrapeptide-amide, the biologically active center of gastrin
- gastric acid secretion stimulating effect compared with the total hormone (gastrin) (gastric acid secretion [1]): lower by about one order of magnitude

Compound: CSCC[C@H](NC(=O)[C@H](Cc1c[nH]c2ccccc12)NC(=O)CCNC(=O)OC(C)(C)C)C(=O)N[C@@H](CC(=O)O)C(=O)N[C@@H](Cc1ccccc1)C(N)=O [pentagastrin, BOC--β--Ala-- Trp--Met--Asp--Phe--NH2, reference compound]
- activity among known analogs and derivatives of the tetrapeptide-amide / compared with pentagastrin (gastric acid secretion [1]): the most active derivative
- Activity, % (gastric acid secretion increasing effect) (gastric acid secretion [2]; 0.2 μg i.v.): 100%
- gastric acid secretion when administered enterally (gastric acid secretion [2]; enteral, even in higher dosages): does not increase the gastric acid secretion

Compound: CSCC[C@H](NC(=O)[C@H](Cc1c[nH]c2ccccc12)NC(=O)CONC(=O)OC(C)(C)C)C(=O)N[C@@H](CC(=O)O)C(=O)N[C@@H](Cc1ccccc1)C(=O)NOCC(=O)O [BOC-O-Gly Met OGly-OH, 2-(2-(tert.-Butoxycarbonyl-aminooxy)-acetyl-L-tryptophyl-L-methionyl-L-aspartyl-L-phenylalanyl-aminooxy)-acetic acid]
- Activity, % (gastric acid secretion increasing effect) (gastric acid secretion [2]; 0.2 μg i.v.): 25%
- Activity, % (gastric acid secretion increasing effect) (gastric acid secretion [2]; 20 μg rectal): 22%

Compound: CSCC[C@H](NC(=O)[C@H](Cc1c[nH]c2ccccc12)NC(=O)CCONC(=O)OC(C)(C)C)C(=O)N[C@@H](CC(=O)O)C(=O)N[C@@H](Cc1ccccc1)C(=O)NOCC(=O)O [BOC-β-OAla Met OGly-OH, 2-(3-(tert.-Butoxycarbonyl-aminooxy)-propionyl-L-tryptophyl-L-methionyl-L-aspartyl-L-phenylalanyl-aminooxy)-acetic acid]
- Activity, % (gastric acid secretion increasing effect) (gastric acid secretion [2]; 0.2 μg i.v.): 32%

Compound: CC(C)C[C@H](NC(=O)[C@H](Cc1c[nH]c2ccccc12)NC(=O)CONC(=O)OC(C)(C)C)C(=O)N[C@@H](CC(=O)O)C(=O)N[C@@H](Cc1ccccc1)C(N)=O [BOC-OGly Leu H, 2-(tert.-Butoxycarbonyl-aminooxy)-acetyl-L-tryptophyl-L-leucyl-L-aspartyl-L-phenylalanine-amide] (X2-WLDF-NH2)
- Activity, % (gastric acid secretion increasing effect) (gastric acid secretion [2]; 0.2 μg i.v.): 124%
- Activity, % (gastric acid secretion increasing effect) (gastric acid secretion [2]; 2.0 μg i.v.): 272%
- Activity, % (gastric acid secretion increasing effect) (gastric acid secretion [2]; 20 μg intestinal): 6%
- Activity, % (gastric acid secretion increasing effect) (gastric acid secretion [2]; 20 μg rectal): 68%
